Target: dGAE aggregates (Homo sapiens, UniProt P10636)
Experiment: Epitope occlusion assay: dGAE aggregation with/without LMTM, 423 mAb capture ELISA
Format: biochemical
Conditions: LMTM 1:5 ratio, 24 h 37 °C
Experimental: During dGAE aggregation in vitro, scAb binding regions on dGA/dGAE are ‘hidden’ or ‘occluded’ which leads to a loss of immunoreactivity in aggregation samples. Here we have shown the occlusion of binding regions in aggregated dGAE samples and the recovery of immunoreactivity in the presence of LMTM, a tau-aggregation inhibitor. For preparing the aggregates, 10 μl 10 mM DTT was added to 1000 μl 100 μM dGAE and agitated with/without LMTM (1:5 ratio) at 700 rpm for 24 h at 37° C. Following overnight agitation, one third of each sample was kept aside as ‘total’ and the rest was spun down at 16000×g for 30 min and separated into ‘supernatant’ and ‘pellet’. The pellet was then resuspended in half the original volume for further experiments. […] Doubling dilutions of dGAE aggregate ‘total’, ‘supernatant’ and ‘pellet’ samples at 10 μg/ml starting concentration were added to designated wells in doubling dilutions in 1×PBS. dGAE monomer (non-aggregated) was included as assay control. All double dilutions were done in final volumes of 100 μl. This was left to incubate on lab bench for 1 h followed by the addition of test scAbs at 10 μg/ml. Anti-HuCk HRP labelled secondary antibody was added as described previously and ELISA data generated is represented using the graph below.

Chain of dGAE aggregates (P10636 614-708): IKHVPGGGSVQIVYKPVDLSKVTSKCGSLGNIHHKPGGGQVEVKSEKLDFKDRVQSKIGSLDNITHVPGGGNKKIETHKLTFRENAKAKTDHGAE

Q: For CN(C)c1ccc2c(c1)Sc1cc(N(C)C)ccc1N2.CS(=O)(=O)O.CS(=O)(=O)O [LMTM, reference compound], which “effect on dGAE aggregation” value is on record?
A: preventing the aggregation event

— US20250355001A1, “METHOD FOR DETECTING A TAU PROTEIN FRAGMENT IN A SAMPLE” (GTINVENT LIMITED, priority 2022, published 2025)
